According to patent publication US5466671A, “Apidaecin-type peptide antibiotics with improved activities and/or different antibacterial spectrum” (priority 1994, dated 1995):
Values after ≈ are worked out from the molar mass of the structure shown. Residues, ends and D or L forms follow the SMILES beside them.

How the values were obtained:
M. morganii = assay: Minimal inhibitory concentration (liquid culture); details: inoculum 400 CFU/ml; a-b = highest concentration with growth - lowest without growth
Yersinia enterocolitica = assay: Inhibition zone assay (agar plate); type: cell-based; details: 50 nanomoles/well, 3 mm wells
Haemophilus influenzae = assay: Inhibition zone assay (agar plate); type: cell-based; details: 50 nanomoles/well, 3 mm wells
Salmonella typhimurium = assay: Inhibition zone assay (agar plate); type: cell-based; details: agar plate, 50 nanomoles/well, 3 mm wells
E. coli Apid^R [1] = details: cited from earlier work
[2] = test system: Agrobacterium tumefaciens; assay: Inhibition zone assay (agar plate); type: cell-based; details: agar plate, 50 nanomoles/well, 3 mm wells
Klebsiella pneumoniae = assay: Inhibition zone assay (agar plate); type: cell-based; details: agar plate, 50 nanomoles/well, 3 mm wells
Erwinia amylovora = assay: Inhibition zone assay (agar plate); type: cell-based; details: agar plate, 50 nanomoles/well, 3 mm wells
E. coli 11775 [3] = assay: Minimal inhibitory concentration (liquid culture); details: a-b = highest concentration with growth - lowest without growth
Enterobacter cloacae = assay: Inhibition zone assay (agar plate); type: cell-based; details: agar plate, 50 nanomoles/well, 3 mm wells
Rhizobium meliloti = assay: Inhibition zone assay (agar plate); type: cell-based; details: 50 nanomoles/well, 3 mm wells
Morganella morganii = assay: Inhibition zone assay (agar plate); type: cell-based; details: 50 nanomoles/well, 3 mm wells
E. coli Apid^R [4] = assay: Minimal inhibitory concentration (liquid culture); type: cell-based; details: a-b = highest concentration with growth - lowest without growth
Source text: For details see `Experimental Procedures`.

A. calcoaceticus = assay: Minimal inhibitory concentration (liquid culture); details: inoculum 16 × 10^6 CFU/ml; a-b = highest concentration with growth - lowest without growth
S. typhimurium = assay: Minimal inhibitory concentration (liquid culture); details: inoculum 8 × 10^6 CFU/ml; a-b = highest concentration with growth - lowest without growth
Pseudomonas syringae = assay: Inhibition zone assay (agar plate); type: cell-based; details: agar plate, 50 nanomoles/well, 3 mm wells
E. coli 23802 = assay: Minimal inhibitory concentration (liquid culture); details: inoculum 5000 CFU/ml; a-b = highest concentration with growth - lowest without growth
E. coli 11775 [5] = details: against 10^7 cells/ml, parental strain ATCC 11775; cited from earlier work
[6] = test system: Escherichia coli (ATCC11775); assay: Inhibition zone assay (agar plate); type: cell-based; details: agar plate, 50 nanomoles/well, 3 mm wells
Y. enterocolitica = assay: Minimal inhibitory concentration (liquid culture); details: inoculum 5000 CFU/ml; a-b = highest concentration with growth - lowest without growth
E. coli 25922 = assay: Minimal inhibitory concentration (liquid culture); details: inoculum 1100 CFU/ml; a-b = highest concentration with growth - lowest without growth
[7] = test system: Acinetobacter calcoaceticus; assay: Inhibition zone assay (agar plate); type: cell-based; details: agar plate, 50 nanomoles/well, 3 mm wells

For `CC[C@H](C)[C@H](NC(=O)[C@H](Cc1ccc(O)cc1)NC(=O)[C@@H](NC(=O)[C@@H]1CCCN1C(=O)[C@H](CCCNC(=N)N)NC(=O)[C@H](CC(N)=O)NC(=O)[C@H](CC(N)=O)NC(=O)CN)C(C)C)C(=O)N1CCC[C@H]1C(=O)N[C@@H](CCC(N)=O)C(=O)N1CCC[C@H]1C(=O)N[C@@H](CCCNC(=N)N)C(=O)N1CCC[C@H]1C(=O)N1CCC[C@H]1C(=O)N[C@@H](Cc1c[nH]cn1)C(=O)N1CCC[C@H]1C(=O)N[C@@H](CCCNC(=N)N)C(=O)N[C@@H](CC(C)C)C(=O)O` [Hb Ib, reference compound] (H-GNNRPVYIPQPRPPHPRL-OH), the “minimal inhibitory concentration (MIC)” value (M. morganii) was 1 to 5 µg/mL, the “inhibition zone diameter (number of plus signs)” value (“inhibition zone diameter” for short) (Yersinia enterocolitica) was “+++ ((+++) 10-14 mm)” and the “inhibition zone diameter” value (Haemophilus influenzae) was “+++ ((+++) 10-14 mm)”. The “inhibition zone diameter” value (Salmonella typhimurium) was “+++ ((+++) 10-14 mm)”, the “resistance of mutant relative to parental strain (higher apidaecin concentrations)” value (E. coli Apid^R [1]; 11775Apid^R vs ATCC 11775) was “approximately 500 fold” and the MIC value (E. coli Apid^R [1]; against 10^7 cells/ml, mutant strain 11775Apid^R) was 50 µg/mL (≈ 23.7 µM). The “inhibition zone diameter” value [2] was “+++++ ((+++++) 20 or more min)”, the “inhibition zone diameter” value (Klebsiella pneumoniae) was “+++ ((+++) 10-14 mm)” and the “inhibition zone diameter” value (Erwinia amylovora) was “++++ ((++++) 15-19 mm)”. The “minimal inhibitory concentration (MIC)” value (E. coli 11775 [3]; inoculum 16 × 10^6 CFU/ml) was 1 to 5 µg/mL, the “minimal inhibitory concentration (MIC)” value (E. coli 11775 [3]; inoculum 1200 CFU/ml) was under 0.05 µg/mL and the “inhibition zone diameter” value (Enterobacter cloacae) was “+++ ((+++) 10-14 mm)”. The “inhibition zone diameter” value (Rhizobium meliloti) was “+++++ ((+++++) 20 or more min)”, the “inhibition zone diameter” value (Morganella morganii) was “+ ((+) 5-6 mm)” and the “minimal inhibitory concentration (MIC)” value (E. coli Apid^R [4]; inoculum 12 × 10^6 CFU/ml) was over 40 µg/mL. The “minimal inhibitory concentration (MIC)” value (E. coli Apid^R [4]; inoculum 1000 CFU/ml) was 20 to 40 µg/mL, the “minimal inhibitory concentration (MIC)” value (A. calcoaceticus) was 10 to 20 µg/mL and the “minimal inhibitory concentration (MIC)” value (S. typhimurium) was 1 to 5 µg/mL. The “inhibition zone diameter” value (Pseudomonas syringae) was “++++ ((++++) 15-19 mm)”, the “minimal inhibitory concentration (MIC)” value (E. coli 23802) was 10 to 20 µg/mL and the MIC value (E. coli 11775 [5]) was 0.1 µg/mL (≈ 0.0474 µM). For the same compound, the “inhibition zone diameter” value [6] was “++++ ((++++) 15-19 mm)”, the “minimal inhibitory concentration (MIC)” value (Y. enterocolitica) was 1 to 5 µg/mL and the “minimal inhibitory concentration (MIC)” value (E. coli 25922) was 0.5 to 1 µg/mL. For the same compound, the “inhibition zone diameter” value [7] was “+ ((+) 5-6 mm)”.
